Results on 21 molecules are retold here after patent US11905253B2, “Compounds and pharmaceutical compositions for reducing CD95-mediated cell motility” (INSTITUT NATIONAL DE LA SANTE ET DE LA RECHERCHE MEDICALE …, priority 2018, dated 2024).

In experiment [1] the target is T1, CD95/PLCγ1 interaction (SH3-PLCg1/CID-CD95) (Homo sapiens, UniProt P19174).
T1 construct: SH3—PLCγ1-F1 or DD-FADD-F1 (inset) was co-transfected into HEK293T cells; expressed in transfected cells; host or cells: HEK293T
T1 sequence (P19174 791-851): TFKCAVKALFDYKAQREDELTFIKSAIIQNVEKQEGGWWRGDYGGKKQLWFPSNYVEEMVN
Briefly: Renilla luciferase protein-fragment complementation assay (PCA), SH3-PLCγ1-F1 / CID-CD95-F2. The format is cell-based. To be noted: luminescence; for IC50: HEK293T cells, exposed 4 h. As to the method: (§1) A. SH3—PLCγ1-F1 or DD-FADD-F1 (inset) was co-transfected into HEK293T cells along with whole CID-CD95-F2 or DD-CD95-F2 (inset). After 24 h, cells were exposed for 4 h to different compounds according to the invention at different concentrations and luminescence was assessed. The tested compounds were the compounds number 2, 3, 4, 5, 6, 7, 10, 11, 13 and 14.
(§2) F1 corresponds to the N-terminal domain of Renilla luciferase enzyme split into two fragments (F1 and F2, F2 being the C-terminal domain—see Stefan, E. et al. Proc Natl Acad Sci USA 104, 16916-21 (2007)). These F1 and F2 domains were co-expressed in HEK cells, whereupon the interaction between CD95-CID and PLCγ1, or CD95-DD and DD-FADD, allowed protein refolding and subsequent recovery of Renilla luciferase activity.
(§3) CID corresponds to amino acids 175 to 210 of CD95; DD corresponds to amino acids 210 to 303 of CD95.
(§4) Renilla luciferase-based protein-fragment complementation assay (PCA): HEK293T cells were electroporated with 10 μg DNA using a BTM-830 electroporation generator (BTX Instrument Division, Harvard Apparatus). Transfected cells were cultured for 24 h prior to PCA analyses as previously described (Poissonnier, A. et al., Immunity. 2016, 45, 209-223). Briefly, transfected cells (10^6) were washed and resuspended in 100 μL PBS and placed in OptiPlate-96 plates (Perkin-Elmer, Waltham, Mass., USA). Coelenterazine-h (5 μM, Sigma-Aldrich) was added to each well and Renilla luciferase activity was monitored for the first 10 seconds using Infinite200Pro (Tecan, Männedorf, Switzerland).

In experiment [2] the target is T2, CD95/FADD interaction (DD-FADD/DD-CD95) (Homo sapiens, UniProt P25445+Q13158).
T2 construct: DD corresponds to amino acids 210 to 303 of CD95; expressed in transfected cells; host or cells: HEK293T
T2 sequence (P25445 226-319 limits assumed): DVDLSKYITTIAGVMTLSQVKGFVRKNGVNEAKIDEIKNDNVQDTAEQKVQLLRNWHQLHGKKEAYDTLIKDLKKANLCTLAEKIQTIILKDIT
T2 sequence (Q13158 97-181 limits assumed): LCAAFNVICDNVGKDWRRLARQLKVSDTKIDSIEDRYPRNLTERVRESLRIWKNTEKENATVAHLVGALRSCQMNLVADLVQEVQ
The experiment in a line: Renilla luciferase protein-fragment complementation assay (PCA), DD-FADD-F1 / DD-CD95-F2. It counts as cell-based. To be noted: luminescence. The procedure:
as §1, §2, §3, §4

The test system of experiment [3] is CD95-mediated Ca2+ response in Th17 cells. The experiment in a line: CD95-mediated Ca2+ response in Th17 cells (FIG. 5). It counts as cell-based, human. To be noted: 1 μM, 1 h pre-incubation, cl-CD95L 100 ng/mL. As to the method:
All cells were purchased from ATCC (Molsheim Cedex, France). The T cell lines H9 and CEM were cultured in RPMI supplemented with 8% heat-inactivated FCS (v/v) and 2 mM L-glutamine at 37° C./5% CO2. HEK293T cells were cultured at 37° C./5% CO2 in DMEM supplemented with 8% heat-inactivated FCS and 2 mM L-glutamine. PBMCs were isolated from buffy-coat by density gradient centrifugation on lymphocyte separation medium (Eurobio, Les Ulis, France). Th17 cells (CD4+CCR6+CXCR3−) were sorted from PBMCs using a Th17 Enrichment kit (StemCell Technologies, Grenoble, France). Human umbilical vein endothelial cells (HUVEC) were grown in Endothelial Growth Medium (EGM) supplemented with 2% FCS and EGM-2 Bullet Kit (Lonza, Levallois-Perret, France).
Th17 cells were pre-incubated for 1 h with TAT-control, minCID, or compound 13 (each at 1 μM), and then stimulated with cl-CD95L (100 ng/mL). [Ca^2+]CYT was assessed in Fluo2 LR-AM (2 μM)-loaded cells.

Turning to `CCCCCCCCCCCCCCCCCC(=O)N(CCN)C(CCCNC(=N)N)C(=O)NCCN(C(=O)CCCCCN)C(Cc1cnc[nH]1)C(=O)NCCN(C(=O)CCCCNC(=N)N)C(CCCCN)C(N)=O` (centres unmarked) [Compound 1], the IC50 in experiment [1] stood at 34.7 µM; in experiment [2] (HEK293T cells, exposed 4 h) it was 33.2 µM.
For `N=C(N)NCCCCC(=O)N(CCNC(=O)C(Cc1cnc[nH]1)N(CCNC(=O)C(CCCNC(=N)N)N(CCN)C(=O)CCS)C(=O)CCCCCC(N)=O)C(CCCCN)C(N)=O` (centres unmarked) [Compound 2] the same measures were 315 µM and 311 µM.
The matching figures for `N=C(N)NCCCCC(=O)N(CCNC(=O)C(Cc1cnc[nH]1)N(CCNC(=O)C(CCCNC(=N)N)N(CCN)C(=O)CCS)C(=O)CCc1c[nH]c2ccccc12)C(CCCCN)C(N)=O` (centres unmarked) [Compound 3]: 185 µM and 246 µM.
For `N=C(N)NCCCCC(=O)N(CCNC(=O)C(Cc1cnc[nH]1)N(CCNC(=O)C(CCCNC(=N)N)N(CCN)C(=O)CCS)C(=O)CCC1CNc2ccccc21)C(CCCCN)C(N)=O` (centres unmarked) [Compound 4] the same measures were 203 µM and 245 µM.
As to `N=C(N)NCCCCC(=O)N(CCNC(=O)C(Cc1cnc[nH]1)N(CCNC(=O)C(CCCNC(=N)N)N(CCN)C(=O)CCS)C(=O)CCc1ccc(O)cc1)C(CCCCN)C(N)=O` (centres unmarked) [Compound 5], the IC50 stood at 196 µM in experiment [1] and 213 µM in experiment [2] (HEK293T cells, exposed 4 h).
For `CC(O)C(N)C(=O)NCCN(C(=O)CCS)C(CCCNC(=N)N)C(=O)NCCN(C(=O)CCc1c[nH]c2ccccc12)C(Cc1c[nH]cn1)C(=O)NCCN(C(=O)CCCCNC(=N)N)C(CCCCN)C(N)=O` (centres unmarked) [Compound 6] the same measures were 356 µM and 277 µM.
For `CC(O)C(N)C(=O)NCCN(C(=O)CCS)C(Cc1c[nH]c2ccccc12)C(=O)NCCN(C(=O)CCCCCN)C(Cc1cnc[nH]1)C(=O)NCCN(C(=O)CCCCNC(=N)N)C(CCCCN)C(N)=O` (centres unmarked) [Compound 7] the same measures were 78.6 µM and 325 µM.
With `N=C(N)NCCCCC(=O)N(CCNC(=O)C(N)CS)C(CCCCN)C(=O)NCCN(C(=O)CCc1c[nH]cn1)C(CCCNC(=N)N)C(=O)NCCNC(=O)CCCCCN` (centres unmarked) [Compound 10], the IC50 was determined as 400 µM in experiment [1] and 448 µM in experiment [2] (HEK293T cells, exposed 4 h).
For `CC(O)CC(=O)NC(CS)C(=O)NCCN(C(=O)CCCCNC(=N)N)C(CCCCN)C(=O)NCCN(C(=O)CCc1c[nH]cn1)C(CCCNC(=N)N)C(=O)NCCNC(=O)CCCCCN` (centres unmarked) [Compound 11] the same measures were 309 µM and 629 µM.
The matching figures for `CC(O)CC(=O)N(CCN)C(CS)C(=O)NCCN(C(=O)CCCCNC(=N)N)C(CCCCN)C(=O)NCCN(C(=O)CCc1c[nH]cn1)C(CCCNC(=N)N)C(=O)NCCNC(=O)CCCCCN` (centres unmarked) [Compound 12]: 229 µM and 319 µM.
In turn, `CC(O)C(N)C(=O)NCCN(C(=O)CCS)C(CCCNC(=N)N)C(=O)NCCN(C(=O)CCCCCN)C(Cc1cnc[nH]1)C(=O)NCCN(C(=O)CCCCNC(=N)N)C(CCCCN)C(N)=O` (centres unmarked) [Compound 13] came in with a concentration for half-maximal inhibition (IC50) in experiment [1] of 77.2 µM. Moreover, the “IC50 DD-FADD/DD-CD95” value in experiment [2] (HEK293T cells, exposed 4 h) is “ns”.
As to `N=C(N)NCCCCC(=O)N(CCNC(=O)C(Cc1cnc[nH]1)N(CCNC(=O)C(CCCNC(=N)N)N(CCN)C(=O)CCS)C(=O)CCCCCN)C(CCCCN)C(N)=O` (centres unmarked) [Compound 14], the IC50 was determined as 75.2 µM in experiment [1] and 3800 µM in experiment [2] (HEK293T cells, exposed 4 h).
For `CCC(=O)N(CCN)C(CCCNC(=N)N)C(=O)NCCN(C(=O)CCCCCN)C(Cc1cnc[nH]1)C(=O)NCCN(C(=O)CCCCNC(=N)N)C(CCCCN)C(N)=O` (centres unmarked) [Compound 15] the same measures were 60.9 µM and 164 µM.
The matching figures for `N=C(N)NCCCCC(=O)N(CCNC(=O)C(Cc1cnc[nH]1)N(CCNC(=O)C(CCCNC(=N)N)N(CCN)C(=O)CCO)C(=O)CCCCCN)C(CCCCN)C(N)=O` (centres unmarked) [Compound 16]: 79 µM and 3930 µM.
For `N=C(N)NCCCCC(=O)N(CCNC(=O)C(Cc1cnc[nH]1)N(CCNC(=O)C(CCCNC(=N)N)N(CCN)C(=O)CCC(N)=O)C(=O)CCCCCN)C(CCCCN)C(N)=O` (centres unmarked) [Compound 17] the same measures were 343 µM and 720 µM.
For `N=C(N)NCCCC(C(=O)NCCN(C(=O)CCCCCN)C(Cc1cnc[nH]1)C(=O)NCCN(C(=O)CCc1ccc(O)cc1)C(CCCCN)C(N)=O)N(CCN)C(=O)CCS` (centres unmarked) [Compound 26], the half-inhibitory concentration (IC50) in experiment [1] came out at 655 µM.
On the same count and under the same terms, with `N=C(N)NCCCC(C(=O)NCCN(C(=O)CCCCCN)C(Cc1cnc[nH]1)C(=O)NCCN(C(=O)CCc1ccc(N)cc1)C(CCCCN)C(N)=O)N(CCN)C(=O)CCS` (centres unmarked) [Compound 27] the figure was 856 µM.
Consider `N=C(N)NCCCC(C(=O)NCCN(C(=O)CCCCCN)C(Cc1cnc[nH]1)C(=O)NCCN(C(=O)CCc1c[nH]c2ccccc12)C(CCCCN)C(N)=O)N(CCN)C(=O)CCS` (centres unmarked) [Compound 28], for which the half-inhibitory concentration (IC50) worked out at 343 µM in experiment [1] and 2650 µM in experiment [2] (HEK293T cells, exposed 4 h).
For `N=C(N)NCCCCC(=O)N(CCNC(=O)C(Cc1cnc[nH]1)N(CCNC(=O)C(Cc1cccnc1)N(CCN)C(=O)CCS)C(=O)CCCCCN)C(CCCCN)C(N)=O` (centres unmarked) [Compound 30] the same measures were 907 µM and 4250 µM.
For `N=C(N)NCCCCC(=O)N(CCNC(=O)C(Cc1cnc[nH]1)N(CCNC(=O)C(Cc1c[nH]c2ccccc12)N(CCN)C(=O)CCS)C(=O)CCCCCN)C(CCCCN)C(N)=O` (centres unmarked) [Compound 31] the same measures were 85.5 µM and 173 µM.
As to “minCID: minimum domain of CID required for interaction with PLCγ1; amino acids 182-188 (TCRKHRK) (SEQ ID NO: 1) of human CD95; positive control (minCID corresponding to amino acids 182-188 of human CD95; listed as Homo sapiens) [reference compound]”, in experiment [1] (HEK cells, 4 h, FIGS. 1A, 1B, 1C), the “disruption of the CD95/PLCγ1 interaction” value was “disrupt the CD95/PLCγ1 interaction”. The “effect on the CD95/FADD interaction” value in experiment [2] (HEK cells, 4 h, FIGS. 1A, 1B, 1C (inset)) is “without affecting the CD95/FADD interaction”. For the same molecule, the “CD95-mediated Ca2+ response in Th17 cells” value in experiment [3] is “inhibited”.
